Where two headings read alike, the source gives them in different places.
How the values were obtained:
[1] = tested on: phosphorylation of RIPK1, RIPK3 and MLKL; test: Western blotting of necroptotic signaling in L929 cells; format: cell-based, mouse
[2] = tested on: L929; test: Cell viability assay, protection from necroptosis in L929 cells; format: cell-based, mouse; details: Mus musculus, L929, 16 h
[3] = tested on: FADD−/− Jurkat; test: Cell viability assay, protection from necroptosis in FADD−/− Jurkat cells; format: cell-based; details: Homo sapiens, 16 h
[4] = molecular target: T1, CYP2C8 (Homo sapiens, UniProt P10632); test: CYP450 inhibition; format: in vitro ADME
T1 sequence (P10632 1-490): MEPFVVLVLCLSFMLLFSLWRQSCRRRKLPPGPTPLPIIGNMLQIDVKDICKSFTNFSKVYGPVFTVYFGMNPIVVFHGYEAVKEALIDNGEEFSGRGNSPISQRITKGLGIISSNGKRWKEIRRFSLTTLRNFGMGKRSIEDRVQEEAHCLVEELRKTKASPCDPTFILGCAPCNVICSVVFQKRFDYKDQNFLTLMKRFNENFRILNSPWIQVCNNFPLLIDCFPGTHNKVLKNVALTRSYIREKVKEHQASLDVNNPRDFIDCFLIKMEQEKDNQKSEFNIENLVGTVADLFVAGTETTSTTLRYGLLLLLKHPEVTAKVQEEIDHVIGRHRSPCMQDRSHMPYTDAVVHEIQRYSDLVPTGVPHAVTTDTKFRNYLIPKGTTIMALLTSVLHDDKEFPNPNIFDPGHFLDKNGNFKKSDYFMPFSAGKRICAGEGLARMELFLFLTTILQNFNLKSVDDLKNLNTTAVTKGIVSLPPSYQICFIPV

[5] = molecular target: hRIPK3 (Homo sapiens, UniProt Q9Y572); test: In vitro RIPK3 kinase activity assay; format: biochemical
[6] = molecular target: T2, hRIPK1 (Homo sapiens, UniProt Q13546); test: In vitro RIPK1 kinase activity assay; format: biochemical; details: Enzymatic IC50s RIPK1, hRIPK1 enzymatic assay
T2 sequence (Q13546 1-671): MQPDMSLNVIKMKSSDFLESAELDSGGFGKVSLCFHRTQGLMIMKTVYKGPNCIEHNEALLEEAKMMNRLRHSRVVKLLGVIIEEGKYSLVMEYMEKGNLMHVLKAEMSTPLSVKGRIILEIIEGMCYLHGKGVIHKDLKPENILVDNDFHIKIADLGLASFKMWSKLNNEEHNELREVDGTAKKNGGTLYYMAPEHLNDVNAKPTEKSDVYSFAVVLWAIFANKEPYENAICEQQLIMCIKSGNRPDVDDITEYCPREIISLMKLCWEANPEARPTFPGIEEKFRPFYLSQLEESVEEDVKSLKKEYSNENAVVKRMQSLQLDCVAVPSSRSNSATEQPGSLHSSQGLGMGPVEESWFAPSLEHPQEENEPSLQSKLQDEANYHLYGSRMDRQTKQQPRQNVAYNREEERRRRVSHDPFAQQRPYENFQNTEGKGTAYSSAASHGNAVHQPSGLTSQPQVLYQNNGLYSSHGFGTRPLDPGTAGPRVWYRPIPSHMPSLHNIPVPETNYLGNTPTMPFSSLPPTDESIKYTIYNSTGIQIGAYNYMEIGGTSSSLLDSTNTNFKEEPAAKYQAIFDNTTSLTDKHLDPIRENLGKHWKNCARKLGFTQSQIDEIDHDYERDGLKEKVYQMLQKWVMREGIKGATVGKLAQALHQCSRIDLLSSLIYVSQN

[7] = PK study in mice; format: in vivo; details: male, ICR, mouse, plasma
[8] = tested on: Ripk1K612R/K612R mice; format: in vivo, mouse; details: 10 or 20 mpk po QD, 40 days
[9] = tested on: p-S166 RIPK1; test: Pharmacodynamic study in SIRS mouse model, p-RIPK1 immunostaining; format: in vivo; details: 1 mpk, 8 h after TNFα (20 μg)
[10] = tested on: TNFα-induced systemic inflammatory response syndrome; test: TNFα-induced SIRS mouse model; format: in vivo, C57BL/6J male mice; details: TNFα 10 μg iv
[11] = molecular target: TEL-TRKA fusion (Homo sapiens, UniProt P04629+P41212); test: Anti-proliferation in engineered Ba/F3 cells dependent on TEL-TRKA; format: cell-based; details: read-out: IC50 anti-proliferative effect, TEL-TRKA Ba/F3; 72 h
[12] = tested on: p-S345 MLKL; test: Pharmacodynamic study in SIRS mouse model, p-MLKL immunostaining; format: in vivo; details: 2 mpk, 8 h after TNFα (20 μg)
[13] = tested on: SARS-CoV-2; format: cell-based; details: 5 μmol/L, 48 h, human lung organoids
[14] = tested on: RIPK1; format: cell-based, human
[15] = PK study in rats; format: in vivo; details: SD, rat, plasma
[16] = tested on: RA symptoms; test: RA mouse model induced by collagen antibodies and LPS; format: in vivo, BALB/c male mice; details: 15 or 30 mpk po daily, 8 days
[17] = read-out: EC50 FADD−/− Jurkat T + S
[18] = read-out: EC50 FADD−/− Jurkat TNFα

Chain of hRIPK3 (Q9Y572 whole entry): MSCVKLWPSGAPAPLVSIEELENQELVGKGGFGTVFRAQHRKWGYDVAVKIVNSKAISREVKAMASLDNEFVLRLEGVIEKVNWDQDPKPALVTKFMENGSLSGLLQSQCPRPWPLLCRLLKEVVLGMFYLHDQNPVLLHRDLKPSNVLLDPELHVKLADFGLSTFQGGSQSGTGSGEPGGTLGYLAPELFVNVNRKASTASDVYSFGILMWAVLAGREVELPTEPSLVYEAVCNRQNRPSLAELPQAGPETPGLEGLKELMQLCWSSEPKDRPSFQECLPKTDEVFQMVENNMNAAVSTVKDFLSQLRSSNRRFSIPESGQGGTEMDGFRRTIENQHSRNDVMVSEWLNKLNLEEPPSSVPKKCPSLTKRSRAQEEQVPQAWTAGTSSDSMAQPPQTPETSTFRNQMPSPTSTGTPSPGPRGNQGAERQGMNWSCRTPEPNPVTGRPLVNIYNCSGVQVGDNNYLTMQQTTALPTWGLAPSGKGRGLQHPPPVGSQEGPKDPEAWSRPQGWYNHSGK
Chain of TEL-TRKA fusion (P04629 510-781 limits assumed, one chain of several): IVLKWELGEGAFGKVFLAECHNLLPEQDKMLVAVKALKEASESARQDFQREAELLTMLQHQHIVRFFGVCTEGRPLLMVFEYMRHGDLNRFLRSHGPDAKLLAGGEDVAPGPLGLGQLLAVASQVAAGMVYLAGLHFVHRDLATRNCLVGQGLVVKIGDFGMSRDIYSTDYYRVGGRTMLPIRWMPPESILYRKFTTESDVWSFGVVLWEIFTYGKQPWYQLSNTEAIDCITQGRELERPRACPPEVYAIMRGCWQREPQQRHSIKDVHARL

CN1C(=O)[C@@H](NC(=O)c2n[nH]c(Cc3ccccc3)n2)COc2ccccc21 [compound 2, GSK2982772, reference compound]
phosphorylation cascade (Western blot), L929 [1]: inactive even at 1 μmol/L | EC50 ([2]; read-out: EC50 L929 T + S): 8280 nM | EC50 ([2]; read-out: EC50 L929 TNFα): 1200 nM | EC50 [3, 17]: 3.9 nM | EC50 [3, 18]: 0.5 nM

Cn1ncc(C(=O)NCc2ccc(-n3cnc4c(N)ncnc43)cc2)c1Cc1ccccc1 [compound 39, N-(4-(6-Amino-9H-purin-9-yl)benzyl)-5-benzyl-1-methyl-1H-pyrazole-4-carboxamide]
inhibition of CYP2C8 (in words) [4]: weakly inhibited CYP2C8 | IC50 [5]: > 1000 nM | IC50 [6]: 9.5 nM | EC50 ([2]; read-out: EC50 L929 T + S): 3.6 nM | EC50 ([2]; read-out: EC50 L929 TNFα): 0.9 nM | EC50 [3, 17]: 1 nM | EC50 [3, 18]: 0.04 nM | AUC(0-inf) ([7]; iv, 1 mg/kg): 882 ng·h/mL | AUC(0-t) ([7]; iv, 1 mg/kg): 862 ng·h/mL | MRT inf ([7]; iv, 1 mg/kg): 2.08 h | Vd ([7]; iv, 1 mg/kg): 2.35 L/kg | clearance ([7]; iv, 1 mg/kg): 18.3 mL/min/kg | half-life ([7]; iv, 1 mg/kg): 48.6 min | AUC(0-inf) ([7]; po, 10 mg/kg): 2210 ng·h/mL | AUC(0-t) ([7]; po, 10 mg/kg): 2190 ng·h/mL | Cmax ([7]; po, 10 mg/kg): 1340 ng/mL | MRT inf ([7]; po, 10 mg/kg): 2.55 h | Tmax ([7]; po, 10 mg/kg): 19.8 min | bioavailability ([7]; po, 10 mg/kg): 25.4% | half-life ([7]; po, 10 mg/kg): 80.4 min

Cn1nnc(C(=O)NCc2ccc(-n3cnc4c(N)ncnc43)cc2)c1Cc1ccccc1 [compound 49, N-(4-(6-Amino-9H-purin-9-yl)benzyl)-5-benzyl-1-methyl-1H-1,2,3-triazole-4-carboxamide]
inhibition of CYP2C8 (in words) [4]: weakly inhibited CYP2C8 | IC50 [5]: > 1000 nM | IC50 [6]: ~6 nM | EC50 ([2]; read-out: EC50 L929 T + S): 0.06 nM | EC50 ([2]; read-out: EC50 L929 TNFα): 0.03 nM | EC50 [3, 17]: 0.5 nM | EC50 [3, 18]: 0.06 nM | AUC(0-inf) ([7]; iv, 1 mg/kg): 1420 ng·h/mL | AUC(0-t) ([7]; iv, 1 mg/kg): 1240 ng·h/mL | MRT inf ([7]; iv, 1 mg/kg): 10.5 h | Vd ([7]; iv, 1 mg/kg): 6.98 L/kg | clearance ([7]; iv, 1 mg/kg): 11.7 mL/min/kg | half-life ([7]; iv, 1 mg/kg): 61.8 min | AUC(0-inf) ([7]; po, 10 mg/kg): 4330 ng·h/mL | AUC(0-t) ([7]; po, 10 mg/kg): 4110 ng·h/mL | Cmax ([7]; po, 10 mg/kg): 1220 ng/mL | MRT inf ([7]; po, 10 mg/kg): 5.75 h | Tmax ([7]; po, 10 mg/kg): 40.2 min | bioavailability ([7]; po, 10 mg/kg): 33.3% | half-life ([7]; po, 10 mg/kg): 99 min

C[C@@H](c1ccc(-n2cnc3c(N)ncnc32)cc1)N1CCc2nn(C)c(Cc3ccccc3)c2C1=O [compound 62, (S)-5-(1-(4-(6-Amino-9H-purin-9-yl)phenyl)ethyl)-3-benzyl-2-methyl-2,5,6,7-tetrahydro-4H-pyrazolo[4,3-c]pyridin-4-one]
adverse effects during long-term treatment [8]: no adverse effects had been observed | colorectal stricture, splenomegaly and thymus hyperplasia symptoms in IBD mice [8]: significantly alleviated | diarrhea and weight loss symptoms in IBD mice ([8]; vs control group): significantly reduced diarrhea and weight loss symptoms | TNFα-induced activation of RIPK1 in mouse organs [9]: almost eliminated TNFα-induced activation of RIPK1 in mouse organs | symptoms (hypothermia) in SIRS mice ([10]; 1 mpk (po)): almost eliminated the symptoms | survival in SIRS mice ([10]; 1 mpk (po), n = 7): protected all mice from the fatality | acute hypothermia in SIRS mice ([10]; 2 mpk (po)): completely mitigated the acute hypothermia | IC50 [11]: 634 nM | IC50 [5]: 730 nM | fold less potent against hRIPK3 than hRIPK1 ([5]; ratio of enzymatic IC50s): at least 200 fold | phosphorylation levels of MLKL in mouse organs [12]: significantly suppressed | IC50 [6]: 3.5 nM | phosphorylation cascade (Western blot), L929 ([1]; TNFα (40 ng/mL) and SM164 (25 nmol/L), 15 h, titration): almost completely blocked the phosphorylation cascade at 40 nmol/L | antiviral effects (SARS-CoV-2 N protein levels) [13]: very strong antiviral effects compared to reported RIPK1i | activation of RIPK1 in SARS-CoV-2 infected human lung organoids [14]: completely abolished the activation of RIPK1 | EC50 ([2]; read-out: EC50 L929 T + S): 1.3 nM | EC50 ([2]; read-out: EC50 L929 TNFα): 0.2 nM | EC50 [3, 17]: 0.1 nM | EC50 [3, 18]: 0.02 nM | Tmax ([15]; po, 5 mg/kg): 30 min | bioavailability ([15]; po, 5 mg/kg): 34.1% | half-life ([15]; po, 5 mg/kg): 251 min | AUC(0-inf) ([15]; male, iv, 0.5 mg/kg): 397 ng·h/mL | AUC(0-t) ([15]; male, iv, 0.5 mg/kg): 390 ng·h/mL | MRT inf ([15]; male, iv, 0.5 mg/kg): 1.03 h | Vd ([15]; male, iv, 0.5 mg/kg): 0.77 L/kg | clearance ([15]; male, iv, 0.5 mg/kg): 13.3 mL/min/kg | half-life ([15]; male, iv, 0.5 mg/kg): 54.6 min | AUC(0-inf) ([15]; male, po, 5 mg/kg): 2250 ng·h/mL | AUC(0-t) ([15]; male, po, 5 mg/kg): 2200 ng·h/mL | Cmax ([15]; male, po, 5 mg/kg): 505 ng/mL | MRT inf ([15]; male, po, 5 mg/kg): 6.82 h | RA symptoms (paw edema, erythema, joint stiffness) [16]: effectively eliminate most RA symptoms | bodyweight in RA mice [16]: without affecting the bodyweight | AUC(0-inf) ([7]; iv, 0.5 mg/kg): 476 ng·h/mL | AUC(0-t) ([7]; iv, 0.5 mg/kg): 471 ng·h/mL | MRT inf ([7]; iv, 0.5 mg/kg): 1.49 h | Vd ([7]; iv, 0.5 mg/kg): 0.94 L/kg | clearance ([7]; iv, 0.5 mg/kg): 10 mL/min/kg | half-life ([7]; iv, 0.5 mg/kg): 77.4 min | AUC(0-inf) ([7]; po, 5 mg/kg): 6520 ng·h/mL | AUC(0-t) ([7]; po, 5 mg/kg): 6500 ng·h/mL | Cmax ([7]; po, 5 mg/kg): 1980 ng/mL | MRT inf ([7]; po, 5 mg/kg): 2.81 h | Tmax ([7]; po, 5 mg/kg): 30 min | bioavailability ([7]; po, 5 mg/kg): 82.2% | half-life ([7]; po, 5 mg/kg): 232 min

C[C@@H](c1ccc(-n2cnc3c(N)ncnc32)cc1)N1Cc2nn(C)c(Cc3ccccc3)c2C1=O [compound 63, (S)-5-(1-(4-(6-Amino-9H-purin-9-yl)phenyl)ethyl)-3-benzyl-2-methyl-5,6-dihydropyrrolo[3,4-c]pyrazol-4(2H)-one]
IC50 [11]: > 1000 nM | EC50 ([2]; read-out: EC50 L929 T + S): 1.6 nM | EC50 ([2]; read-out: EC50 L929 TNFα): 0.3 nM | EC50 [3, 17]: 0.4 nM | EC50 [3, 18]: 0.03 nM | AUC(0-inf) ([7]; iv, 1 mg/kg): 644 ng·h/mL | AUC(0-t) ([7]; iv, 1 mg/kg): 643 ng·h/mL | MRT inf ([7]; iv, 1 mg/kg): 0.97 h | Vd ([7]; iv, 1 mg/kg): 1.6 L/kg | clearance ([7]; iv, 1 mg/kg): 26.7 mL/min/kg | half-life ([7]; iv, 1 mg/kg): 36.6 min | AUC(0-inf) ([7]; po, 10 mg/kg): 1730 ng·h/mL | AUC(0-t) ([7]; po, 10 mg/kg): 1700 ng·h/mL | Cmax ([7]; po, 10 mg/kg): 714 ng/mL | MRT inf ([7]; po, 10 mg/kg): 2.75 h | Tmax ([7]; po, 10 mg/kg): 40.2 min | bioavailability ([7]; po, 10 mg/kg): 26.4% | half-life ([7]; po, 10 mg/kg): 63 min
